# Source: US8372866B2, “2-aryl and 2-heteroaryl 4H-1-benzopyran-4-one-6-amidino derivatives, new pharmacological agents for the treatment of arthritis, cancer and related pain” (Rottapharm S.p.A., priority 2008, dated 2013)
# Counter-ions that a name gives are not always drawn.
# Assays:
# [1] = biological target: T1, recombinant human aggrecanase 1 (ADAMTS-4) (Homo sapiens, UniProt O75173); assay: InviLISA Aggrecanase activity assay, aggrecanase 1; format: biochemical; conditions: for inhibition at 10 µM: inhibitors tested at 10 μM final concentration
# T1 construct: ADAMTS-4 aminoacids F213-A579 with C-terminal tag; purchased Invitek GmbH, Berlin
# T1 sequence (O75173 213-579): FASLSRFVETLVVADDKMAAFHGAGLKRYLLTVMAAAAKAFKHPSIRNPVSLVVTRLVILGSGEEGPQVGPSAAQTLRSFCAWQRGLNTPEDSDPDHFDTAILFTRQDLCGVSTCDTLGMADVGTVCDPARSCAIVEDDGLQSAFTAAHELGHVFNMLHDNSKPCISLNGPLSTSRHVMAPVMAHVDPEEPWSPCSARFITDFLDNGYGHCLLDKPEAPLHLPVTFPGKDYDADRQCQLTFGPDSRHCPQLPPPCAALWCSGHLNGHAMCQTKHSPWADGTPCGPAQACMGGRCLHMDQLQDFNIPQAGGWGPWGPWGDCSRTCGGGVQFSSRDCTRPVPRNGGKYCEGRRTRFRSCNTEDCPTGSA
# Description: (§1) The InviLISA Aggrecanase activity assay (Invitek GmbH, Berlin) was used to screen and characterise aggrecanase inhibitors. The assay was carried out in two steps, according to Will et al. (Will H, Dettloff M, Bendzko P, Svenshnikov P, A Quantitative Assay for aggrecanase Activity; 2005, Journal of Biomolecular Techniques, 16 (4), 459-472). A recombinant fragment of human aggrecan interglobular domain (aggrecan-IGD; T331-G458) is first digested with aggrecanase. Proteolytic cleavage of the substrate releases an aggrecan peptide with the N-terminal sequence ARGSVIL (ARGSVIL-peptide), that was then quantified with two monoclonal anti-peptide antibodies (ELISA module). For precise calculation of product, ARGSVIL-peptide standard concentrations were run in parallel.
# (§2) 1) Proteolysis of aggrecan-IGD by aggrecanase. Aggrecan-IGD was incubated with standard recombinant human aggrecanase 1 (ADAMTS-4 aminoacids F213-A579 with C-terminal tag) or standard recombinant human aggrecanase 2 (ADAMTS-5 aminoacids S262-G625 with C-terminal tag) in the absence (total enzymatic activity) or presence (modulated enzymatic activity) of inhibitors to be tested. Enzymes were pre-incubated with the inhibitors or the appropriate concentration of diluent as control (DMSO 0.25% final concentration in proteolysis), at 4° C. for 30 min prior to assaying their activity. Five microliters of mix enzyme-inhibitor were added to the substrate (0.1 μM final concentration) in a total volume of 100 μL and incubated for 15 minutes at 37° C. The reaction was terminated with EDTA-containing buffer. The inhibitors were tested at 10 μM final concentration and compounds achieving ≧50% inhibitory effect were evaluated for IC50 calculation, in a range generally extended from 0.1 to 10 μM final concentration.
# (§3) 2) Aggrecan peptide ELISA. ARGSVIL-peptide standard, proteolytic digestion of Aggrecan-IGD with standard aggrecanases and test samples were incubated in microtiter wells pre-coated with anti-ARGSVIL-neoepitope antibody. ARGSVIL-peptide is bound to the coated antibody, while other components are removed by washing and aspiration. The bound ARGSVIL-peptide was detected with a second peroxidase-labelled antibody. Any excess of the conjugate was removed by washing and aspiration. The amount of peroxidase bound to different wells was determined in reactions with peroxidase substrate TMB. The reactions are stopped by addition of sulphuric acid solution and absorbance is read at 450 nm in a microtiter plate spectrophotometer.
# [2] = biological target: T2, recombinant human aggrecanase 2 (ADAMTS-5) (Homo sapiens, UniProt Q9UNA0); assay: InviLISA Aggrecanase activity assay, aggrecanase 2; format: biochemical; conditions: for inhibition at 10 µM: inhibitors tested at 10 μM final concentration
# T2 construct: ADAMTS-5 aminoacids S262-G625 with C-terminal tag; purchased Invitek GmbH, Berlin
# T2 sequence (Q9UNA0 262-625): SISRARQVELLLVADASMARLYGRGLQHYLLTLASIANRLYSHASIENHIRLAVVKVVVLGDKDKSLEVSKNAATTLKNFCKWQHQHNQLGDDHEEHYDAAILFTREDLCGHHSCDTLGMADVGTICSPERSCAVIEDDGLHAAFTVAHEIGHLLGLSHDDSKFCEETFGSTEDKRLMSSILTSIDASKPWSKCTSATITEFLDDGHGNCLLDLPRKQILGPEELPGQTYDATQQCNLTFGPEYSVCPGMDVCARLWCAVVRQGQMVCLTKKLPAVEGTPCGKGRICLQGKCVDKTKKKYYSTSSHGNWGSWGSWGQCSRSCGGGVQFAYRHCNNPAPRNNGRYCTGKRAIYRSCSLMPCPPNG
# Description: as §1, §2, §3
# [3] = tested on: mechanical hyperalgesia associated with STZ-induced diabetes; assay: STZ-induced diabetes mechanical hyperalgesia, model of neuropathic pain (Randall-Selitto); format: in vivo, rat
# Description: Painful diabetic neuropathy is one of the most common complications of insulin-dependent diabetes in man; in particular, diabetes can be associated with neuropathic pain which fails to be treated by classical analgesics. Streptozotocin (STZ)-induced diabetes in the rat has been increasingly used as a model of painful diabetic neuropathy to assess the efficacies of potential analgesic agents (C. Courteix, Pain 1993, 53, 81-8). A representative compound of the invention was tested for efficacy in reducing mechanical hyperalgesia associated with STZ-induced diabetes in the rat, according to the experimental model as described by the literature. Diabetes was produced with the injection of a single dose (75 mg/Kg i.p.) of STZ. In the following four weeks after the induction of diabetes the clinical symptoms (weight, body and skin temperature, motility and hyperglycemia) progressively developed by the animals, are strictly monitored.
# After four weeks, the scores obtained in diabetic rats to various pain stimuli (in particular mechanical stimuli) were greater than those in normal rats, indicating hyperalgesia. The hyperalgesia induced by diabetes was evaluated using the Randall-Selitto method as above described, and quantitated using the analgesimeter. Also in this case, the difference in the mechanical pain threshold between the basal value (generally 230-250 g) and the one tolerated by the animals treated with the drug, is defined as mechanical hyperalgesia. The compound of the invention was administered i.p. (solution, Tween 80, 10% in saline) at different doses, and mechanical hyperalgesia was measured at the reported time, as maximum percent effect (MPE) which represents the difference (%) in pain threshold between the animals treated with the drug and the controls that received only the vehicle, compared with the weight borne by naïf non-diabetic controls. A 100% protection means that the diabetic animals treated with the compound can tolerate the same stimulus (weight) as the naïf non-diabetic animals. MPE higher than 100% means that the diabetic animal treated with the compound can tolerate stimuli (weight) higher than the control non-diabetic animals (hypoalgesia).
# In Table 4, the effect of a representative compound of formula (I), in the above described model of neuropathic pain, is compared with some known pharmacological standards used for the clinical treatment of this pathology. In particular, from the MPE data at 0.5 hrs, the doses yielding a protection of 50% (ED50) and 100% (ED100) have been calculated.
# [4] = tested on: CFA-induced prolonged inflammation; assay: CFA model of chronic inflammatory pain (Randall-Selitto); format: in vivo, rat
# [5] = 30 mg/Kg IP, NE = not effective
# [6] = 100 mg/Kg IP, NE = not effective
# [7] = 300 mg/Kg IP, NE = not effective
# [8] = 10 mg/Kg IP, NE = not effective
compound,measurement,setting,value
"CC(=N)Nc1ccc2oc(-c3ccc4c(c3)CCO4)c(O)c(=O)c2c1 [Example 15, 2-(dihydrobenzofuran-5-yl)-3-hydroxy-6-[(1-iminoethyl)amino]-4H-1-benzopyran-4-one hydrochloride]",inhibition at 10 µM,[1],10%
same,IC50,[2],15000 nM
"COc1ccc(C(=N)Nc2ccc3oc(-c4ccc(OC)cc4)c(O)c(=O)c3c2)cc1 [Example 14, N-[2-(4-methoxyphenyl)-3-hydroxy-4H-1-benzopyran-4-one-6-yl]-4-methoxybenzene carboxiimidamide hydrochloride]",inhibition at 10 µM,[1],0%
same,IC50,[2],10000 nM
"CC(=N)Nc1ccc2oc(-c3cccc(-n4ccnc4)c3)c(O)c(=O)c2c1 [Example 8, 2-[(3-(imidazol-1-yl)-phenyl]-3-hydroxy-6-[(1-iminoethyl)amino]-4H-1-benzopyran-4-one dihydrochloride]",IC50,[2],10000 nM
"N=C(CC1CC1)Nc1ccc2oc(-c3ccc(O)cc3)c(O)c(=O)c2c1 [Example 11, 2-(4-hydroxyphenyl-3-hydroxy-6-[(1-iminoethyl-2-cyclopropyl)amino]-4H-1-benzopyran-4-one hydrochloride]",inhibition at 10 µM,[1],30%
same,inhibition at 10 µM,[2],40%
"CC(=N)Nc1ccc2oc(-c3ccc(-n4ccnc4)cc3)c(O)c(=O)c2c1 [Example 5, 2-[(4-imidazol-1-yl)-phenyl]-3-hydroxy-6-[(1-iminoethyl)amino]-4H-1-benzopyran-4-one hydrochloride]",inhibition at 10 µM,[1],30%
same,IC50,[2],870 nM
"CC(=N)Nc1ccc2oc(-c3ccc(S(C)(=O)=O)cc3)c(O)c(=O)c2c1 [Example 9, 2-(4-methansulfonylphenyl)-3-hydroxy-6-[(1-iminoethyl)amino]-4H-1-benzopyran-4-one hydrochloride]",inhibition at 10 µM,[1],20%
same,IC50,[2],11500 nM
NCC1(CC(=O)O)CCCCC1 [Gabapentin],MPE 0.5 hrs,[3]; [5],39%
same,MPE 1.5 hrs,[3]; [5],41%
same,MPE 0.5 hrs,[3]; [6],55%
same,MPE 1.5 hrs,[3]; [6],38%
same,MPE 0.5 hrs,[3]; [7],47%
same,MPE 1.5 hrs,[3]; [7],36%
CN(C)CCC=C1c2ccccc2CCc2ccccc21 [Amitriptyline],MPE 0.5 hrs,"[3]; 3 mg/Kg IP, NE = not effective",44%
same,MPE 1.5 hrs,"[3]; 3 mg/Kg IP, NE = not effective",40%
same,MPE 0.5 hrs,[3]; [8],68%
same,MPE 1.5 hrs,[3]; [8],77%
same,MPE 0.5 hrs,[3]; [5],65%
same,MPE 1.5 hrs,[3]; [5],69%
same,MPE 3 hrs,[3]; [5],23%
same,ED50,"[3]; Rattus norvegicus, IP, calculated from the MPE data at 0.5 hrs, NC = not calculable, read-out: ED50 0.5 hrs",3.76 mg/kg
"CC(=N)Nc1ccc2oc(-c3ccc(O)nc3)c(O)c(=O)c2c1 [Example 21, 2-(6-hydroxypyridin-3-yl)-3-hydroxy-6-[(1-iminoethyl)amino]-4H-1-benzopyran-4-one hydrochloride]",inhibition at 10 µM,[2],20%
"COCCC(=N)Nc1ccc2oc(-c3ccc4c(c3)OCO4)c(O)c(=O)c2c1 [Example 19, 2-(benzo[1,3]dioxol-5-yl)-3-hydroxy-6-[(1-iminopropyl-3-methoxy)amino]-4H-1-benzopyran-4-one hydrochloride]",inhibition at 10 µM,[1],0%
same,IC50,[2],8000 nM
N=C(CC1CC1)Nc1ccc2oc(-c3ccc4c(c3)OCO4)c(O)c(=O)c2c1 [Example 18],inhibition at 10 µM,[1],0%
same,IC50,[2],4300 nM
"N=C(CC1CC1)Nc1ccc2oc(-c3ccc(-n4ccnc4)cc3)c(O)c(=O)c2c1 [Example 6, 2-[(4-imidazol-1-yl)-phenyl]-3-hydroxy-6-[(1-iminoethyl-2-cyclopropyl)amino]-4H-1-benzopyran-4-one dihydrochloride monohydrate]",IC50,[1],1610 nM
same,IC50,[2],200 nM
"CN1C(C(=O)Nc2ccccn2)=C(O)c2ccccc2S1(=O)=O [Piroxicam, reference compound]",MPE 0.5 hrs,"[4]; 3 mg/Kg IP, NE = not effective",25%
same,MPE 1.5 hrs,"[4]; 3 mg/Kg IP, NE = not effective",40%
same,MPE 0.5 hrs,[4]; [8],46%
same,MPE 1.5 hrs,[4]; [8],73%
same,MPE 3 hrs,[4]; [8],62%
same,MPE 0.5 hrs,[4]; [5],102%
same,MPE 1.5 hrs,[4]; [5],111%
same,MPE 3 hrs,[4]; [5],54%
same,MPE 6 hrs,[4]; [5],24%
same,MPE 24 hrs,[4]; [5],38%
same,ED100 0.5 hrs,"[4]; IP, calculated from the MPE data at 0.5 hrs",34.33 mg/kg
same,ED50,"[4]; Rattus norvegicus, IP, calculated from the MPE data at 0.5 hrs, read-out: ED50 0.5 hrs",7.65 mg/kg
"COc1ccc(-c2oc3ccc(NC(=N)CO)cc3c(=O)c2O)cc1 [Example 13, 2-(4-methoxyphenyl)-3-hydroxy-6-[(1-iminoethyl-2-hydroxy)amino]-4H-1-benzopyran-4-one hydrochloride monohydrate]",inhibition at 10 µM,[1],0%
same,IC50,[2],2800 nM
"COc1ccc(-c2oc3ccc(NC(C)=N)cc3c(=O)c2O)cc1 [Example 12, 2-(4-methoxyphenyl)-3-hydroxy-6-[(1-iminoethyl)amino]-4H-1-benzopyran-4-one hydrochloride monohydrate]",IC50,[1],2700 nM
same,IC50,[2],1120 nM
"CC(=N)Nc1ccc2oc(-c3ccc(OCc4ccccc4)cc3)c(O)c(=O)c2c1 [Example 22, 2-[(4-benzyloxy-phenyl]-3-hydroxy-6-[(1-iminoethyl)amino]-4H-1-benzopyran-4-one hydrochloride]",inhibition at 10 µM,[2],34%
"CC(=N)Nc1ccc2oc(-c3ccc4c(c3)OCO4)c(O)c(=O)c2c1 [Example 16, 2-(benzo[1,3]dioxol-5-yl)-3-hydroxy-6-[(1-iminoethyl)amino]-4H-1-benzopyran-4-one hydrochloride]",inhibition at 10 µM,[1],32%
same,IC50,[2],5000 nM
COCCC(=N)Nc1ccc2oc(-c3ccc(-n4ccnc4)cc3)c(O)c(=O)c2c1 [Example 7],inhibition at 10 µM,[1],31%
same,IC50,[2],2400 nM
"COc1ccc(-c2oc3ccc(NC(C)=N)cc3c(=O)c2O)cn1 [Example 20, 2-(6-methoxypyridin-3-yl)-3-hydroxy-6-[(1-iminoethyl)amino]-4H-1-benzopyran-4-one]",inhibition at 10 µM,[1],0%
same,IC50,[2],2200 nM
